Like-named read-outs stand apart in the source and are kept apart here. Marks after values point to notes of the source that are not given here. Values belong to the compound of their own block, whether it stands above or below them.
What was measured:
[1] = system: mice; assay: Telemetric monitoring of Tb and physical activity in mice; assay type: in vivo, mouse; conditions: for block of PSB-0777-induced hypothermia: i.p. at -15 min, then PSB-0777 1 mg/kg i.p.
[2] = biological target: human β1 adrenergic receptor (Homo sapiens, UniProt P08588); conditions: read-out: Ki, human β1 adrenergic receptor; PDSP screen
[3] = biological target: mouse A2AAR (Mus musculus, UniProt Q60613); assay: Radioligand binding, mouse A2AAR
[4] = biological target: A2BAR; conditions: read-out: Ki, A2BAR (h), human, cited from earlier work
[5] = biological target: T1, mouse A1AR (Mus musculus, UniProt Q60612); assay: Radioligand binding, mouse A1AR; conditions: for A1AR rat: mouse ratio: ratio of rat Ki to mouse Ki at A1AR
T1 sequence (Q60612 1-326): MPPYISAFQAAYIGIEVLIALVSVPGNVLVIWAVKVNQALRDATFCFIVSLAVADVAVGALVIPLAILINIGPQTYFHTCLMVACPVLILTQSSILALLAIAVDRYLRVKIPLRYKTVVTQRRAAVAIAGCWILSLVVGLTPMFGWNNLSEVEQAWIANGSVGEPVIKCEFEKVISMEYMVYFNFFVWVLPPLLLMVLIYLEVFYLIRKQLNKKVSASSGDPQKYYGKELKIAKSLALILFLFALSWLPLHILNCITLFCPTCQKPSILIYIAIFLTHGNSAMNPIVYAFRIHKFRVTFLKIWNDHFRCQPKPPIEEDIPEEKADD

[6] = system: brown adipose tissue; conditions: by stimulation of brown adipose tissue; ref Gnad et al., 2014; cited from earlier work
[7] = biological target: T2, mouse A3AR (Mus musculus, UniProt Q61618); assay: Radioligand binding, mouse A3AR
T2 sequence (Q61618 1-319): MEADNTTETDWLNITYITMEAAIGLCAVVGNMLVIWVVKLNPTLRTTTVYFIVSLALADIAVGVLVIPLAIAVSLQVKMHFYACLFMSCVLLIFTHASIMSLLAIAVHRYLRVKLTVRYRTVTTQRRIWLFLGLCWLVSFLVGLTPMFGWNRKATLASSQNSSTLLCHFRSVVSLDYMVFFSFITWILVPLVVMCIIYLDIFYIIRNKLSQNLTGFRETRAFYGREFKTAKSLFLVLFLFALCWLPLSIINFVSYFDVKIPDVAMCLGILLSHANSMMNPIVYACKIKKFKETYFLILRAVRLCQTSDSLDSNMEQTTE

[8] = biological target: A1AR; conditions: cited from earlier work
[9] = biological target: human β3 adrenergic receptor (Homo sapiens, UniProt P13945); conditions: read-out: Ki, human β3 adrenergic receptor; PDSP screen
[10] = biological target: T1, mouse A1AR; conditions: ref Carlin et al., 2017, cited from earlier work
[11] = system: A2BAR; conditions: rat; ref Hide et al., 1992; cited from earlier work
[12] = biological target: human 5HT2B receptor (Homo sapiens, UniProt P41595); assay: PDSP off-target radioligand binding, 5HT2B receptor
[13] = biological target: serotonin transporter (SERT) (Homo sapiens, UniProt P31645); assay: PDSP off-target radioligand binding, serotonin transporter
[14] = biological target: M3 acetylcholine receptor (Homo sapiens, UniProt P20309); assay: PDSP off-target radioligand binding, M3 acetylcholine receptor
[15] = cited from earlier work
[16] = biological target: T2, mouse A3AR; conditions: read-out: mouse Ki, A3AR, ref Carlin et al., 2017; cited from earlier work
[17] = system: mice; conditions: cited from earlier work
[18] = system: 45 human receptors, channels, and transporters; assay: PDSP off-target screen, whole panel; assay type: binding; conditions: at <10 μM
[19] = system: mice; assay: Indirect calorimetry; conditions: CGS-21680 0.25 mg/kg, i.p.; C57BL/6J mice
[20] = system: mice; conditions: intraarterial CGS-21680; wild type mice; ref Ledent et al., 1997; cited from earlier work
[21] = read-out: mouse Ki, A2AAR, mouse, current results, ± SEM
[22] = PSB-0777 ≤3 mg/kg, i.p., wild type mice
[23] = read-out: mouse Ki, A1AR, mouse, current results, ± SEM
[24] = preladenant 1 mg/kg, i.p., alone, data not shown
[25] = SCH442416 3 mg/kg, i.p., alone, data not shown
[26] = CGS-21680 0.01–1 mg/kg, i.p., C57BL/6J mice

mouse A2AAR, sequence (Q60613 whole entry): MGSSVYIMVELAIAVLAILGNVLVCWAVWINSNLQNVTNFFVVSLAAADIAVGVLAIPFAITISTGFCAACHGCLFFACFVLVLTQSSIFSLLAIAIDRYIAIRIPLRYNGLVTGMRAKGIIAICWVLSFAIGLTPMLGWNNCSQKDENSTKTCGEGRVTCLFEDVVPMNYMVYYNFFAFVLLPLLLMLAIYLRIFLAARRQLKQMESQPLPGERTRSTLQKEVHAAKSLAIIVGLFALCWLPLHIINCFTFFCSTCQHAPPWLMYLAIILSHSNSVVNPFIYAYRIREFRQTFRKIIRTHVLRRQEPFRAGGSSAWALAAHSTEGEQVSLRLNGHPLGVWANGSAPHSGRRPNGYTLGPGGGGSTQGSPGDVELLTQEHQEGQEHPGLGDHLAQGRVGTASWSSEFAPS
serotonin transporter (SERT), sequence (P31645 whole entry): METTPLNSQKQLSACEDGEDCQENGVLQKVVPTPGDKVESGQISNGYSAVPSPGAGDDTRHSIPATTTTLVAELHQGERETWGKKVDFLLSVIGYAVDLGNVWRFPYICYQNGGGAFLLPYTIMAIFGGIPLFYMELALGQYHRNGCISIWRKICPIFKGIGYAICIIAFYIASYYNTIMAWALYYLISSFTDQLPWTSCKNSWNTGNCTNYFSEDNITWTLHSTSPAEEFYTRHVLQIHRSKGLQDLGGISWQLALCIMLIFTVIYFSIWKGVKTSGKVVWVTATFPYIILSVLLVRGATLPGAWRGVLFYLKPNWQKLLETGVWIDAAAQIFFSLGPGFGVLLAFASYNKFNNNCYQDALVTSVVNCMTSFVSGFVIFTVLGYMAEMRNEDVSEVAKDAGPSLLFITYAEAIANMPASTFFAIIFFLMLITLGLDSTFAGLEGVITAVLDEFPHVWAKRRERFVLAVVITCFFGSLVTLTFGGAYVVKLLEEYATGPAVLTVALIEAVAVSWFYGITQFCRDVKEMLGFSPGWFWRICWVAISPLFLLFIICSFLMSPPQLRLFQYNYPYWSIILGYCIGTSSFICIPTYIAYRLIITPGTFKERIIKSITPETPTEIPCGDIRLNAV
human β1 adrenergic receptor, sequence (P08588 whole entry): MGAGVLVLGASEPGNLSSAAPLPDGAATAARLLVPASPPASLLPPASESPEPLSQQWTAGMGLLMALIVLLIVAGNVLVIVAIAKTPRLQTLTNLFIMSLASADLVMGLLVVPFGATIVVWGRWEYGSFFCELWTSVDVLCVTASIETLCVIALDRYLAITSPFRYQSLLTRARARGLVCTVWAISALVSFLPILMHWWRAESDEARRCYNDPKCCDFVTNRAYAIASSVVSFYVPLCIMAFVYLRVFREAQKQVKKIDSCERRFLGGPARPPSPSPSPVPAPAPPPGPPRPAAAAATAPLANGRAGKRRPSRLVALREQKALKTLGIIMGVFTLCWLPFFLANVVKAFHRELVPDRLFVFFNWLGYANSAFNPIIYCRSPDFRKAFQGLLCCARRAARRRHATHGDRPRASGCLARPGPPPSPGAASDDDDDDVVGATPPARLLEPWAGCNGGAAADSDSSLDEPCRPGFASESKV
human 5HT2B receptor, sequence (P41595 whole entry): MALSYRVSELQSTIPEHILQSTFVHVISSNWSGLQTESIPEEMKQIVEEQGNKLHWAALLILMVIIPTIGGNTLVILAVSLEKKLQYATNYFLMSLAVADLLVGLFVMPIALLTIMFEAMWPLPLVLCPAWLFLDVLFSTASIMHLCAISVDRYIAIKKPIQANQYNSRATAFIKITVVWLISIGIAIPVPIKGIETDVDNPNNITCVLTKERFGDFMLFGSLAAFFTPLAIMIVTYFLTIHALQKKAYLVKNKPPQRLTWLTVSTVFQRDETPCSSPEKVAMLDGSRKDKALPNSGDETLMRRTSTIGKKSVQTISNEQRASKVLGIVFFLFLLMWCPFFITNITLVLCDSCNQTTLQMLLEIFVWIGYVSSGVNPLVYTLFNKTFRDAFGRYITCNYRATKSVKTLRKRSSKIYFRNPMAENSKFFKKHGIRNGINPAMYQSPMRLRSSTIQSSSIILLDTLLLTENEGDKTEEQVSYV
human β3 adrenergic receptor, sequence (P13945 whole entry): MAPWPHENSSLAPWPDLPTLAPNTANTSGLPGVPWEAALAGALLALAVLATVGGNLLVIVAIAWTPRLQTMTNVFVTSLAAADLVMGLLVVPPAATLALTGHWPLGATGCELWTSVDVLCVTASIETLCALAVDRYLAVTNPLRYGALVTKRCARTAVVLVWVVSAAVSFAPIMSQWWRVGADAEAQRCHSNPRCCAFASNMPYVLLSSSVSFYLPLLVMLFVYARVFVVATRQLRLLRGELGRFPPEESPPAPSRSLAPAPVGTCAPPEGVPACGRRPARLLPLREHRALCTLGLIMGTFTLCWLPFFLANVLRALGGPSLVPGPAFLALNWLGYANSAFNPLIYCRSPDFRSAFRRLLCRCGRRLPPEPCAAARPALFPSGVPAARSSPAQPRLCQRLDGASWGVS
M3 acetylcholine receptor, sequence (P20309 whole entry): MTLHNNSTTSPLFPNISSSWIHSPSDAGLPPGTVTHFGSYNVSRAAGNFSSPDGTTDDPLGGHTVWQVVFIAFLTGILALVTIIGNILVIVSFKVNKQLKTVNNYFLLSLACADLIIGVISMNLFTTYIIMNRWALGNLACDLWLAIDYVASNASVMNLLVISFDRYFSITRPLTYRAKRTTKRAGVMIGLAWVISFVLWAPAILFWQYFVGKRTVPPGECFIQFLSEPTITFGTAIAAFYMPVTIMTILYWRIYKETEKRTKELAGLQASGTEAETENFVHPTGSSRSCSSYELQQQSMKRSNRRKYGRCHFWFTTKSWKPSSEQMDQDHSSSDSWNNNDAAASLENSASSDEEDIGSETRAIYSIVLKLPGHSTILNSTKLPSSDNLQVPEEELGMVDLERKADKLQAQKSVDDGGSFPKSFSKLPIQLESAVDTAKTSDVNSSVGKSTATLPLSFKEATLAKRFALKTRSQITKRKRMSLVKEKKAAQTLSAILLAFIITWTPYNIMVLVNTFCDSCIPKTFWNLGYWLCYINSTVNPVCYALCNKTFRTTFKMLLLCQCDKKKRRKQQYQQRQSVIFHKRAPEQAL

Compound: CCN(CC)CC.Nc1nc2c(cnn2CCCc2ccc(OCc3ccc(S(=O)(=O)O)cc3)cc2)c2nc(-c3ccco3)nn12 [MRS7352, 4-((4-(3-(5-amino-2-(furan-2-yl)-7H-pyrazolo[4,3-e][1,2,4]triazolo[1,5-c]pyrimidin-7-yl)propyl)phenoxy)methyl)benzenesulfonate triethylammonium salt]
physical activity ([1]; MRS7352 3 mg/kg, i.p.): without affecting physical activity | block of PSB-0777-induced hypothermia ([1]; MRS7352 3 mg/kg): completely blocked

Compound: N.Nc1nc(SCCc2ccc(S(=O)(=O)O)cc2)nc2c1ncn2[C@@H]1O[C@H](CO)[C@@H](O)[C@H]1O [PSB-0777, 4-[2-[(6-Amino-9-b-D-ribofuranosyl-9H-purin-2-yl)thio]ethyl]benzenesulfonic acid ammonium salt]
Ki [2]: 4.4 µM | Ki [3, 21]: 0.193 ± 0.028 µM | Tb response (hypothermia) ([1]; PSB-0777 i.p., Adora2a−/− mice): abolished | Tb response (hypothermia) [1, 22]: dose-dependent hypothermia | physical activity [1, 22]: hypoactivity | Ki ([4]; ref El-Tayeb et al., 2011): > 10 µM | A1AR rat: mouse ratio [5]: >500 | Ki [5, 23]: 0.0184 ± 0.0011 µM | energy expenditure [6]: increased energy expenditure | % inhibition at 10 μM, mouse A3AR ([7]; mouse, 10 μM, current results, ± SEM): 26 ± 1% ^e | Ki ([8]; read-out: rat Ki, A1AR, ref El-Tayeb et al., 2011): ≥ 10 µM | Ki [9]: 3.3 µM

Compound: OC[C@H]1O[C@@H](n2cnc3c(NC4CCCC4)ncnc32)[C@H](O)[C@@H]1O [N^6-cyclopentyladenosine]
advantage in binding affinity (A1AR vs A3AR) ([10]; A1AR vs A3AR): 2000 fold

Ki [3, 21]: 0.00357 ± 0.00022 µM | binding to mouse A1AR better than rat A1AR ([5]; mouse vs rat A1AR): ~ 100 fold | A1AR rat: mouse ratio [5]: 95 | Ki [5, 23]: 0.00417 ± 0.00015 µM | Ki ([7]; read-out: mouse Ki, A3AR, mouse, current results, ± SEM): 0.0551 ± 0.0043 µM
Compound: CCNC(=O)[C@H]1O[C@@H](n2cnc3c(N)nc(NCCc4ccc(CCC(=O)NCCN)cc4)nc32)[C@H](O)[C@@H]1O [APEC, 2-[[2-[4-[2-(2-aminoethyl)-aminocarbonyl]ethyl]phenyl]ethylamino]-5′-N-ethyl-carboxamidoadenosine]
Tb response ([1]; APEC 1.7 μg/kg i.p.): blunting the handling hyperthermia | Tb response (hypothermia) ([1]; APEC 50 μg/kg i.p.): robust hypothermia | physical activity ([1]; APEC 50 μg/kg i.p.): hypoactivity | Tb response (hypothermia) ([1]; APEC i.p., Adora1−/−;Adora3−/− mice): attenuated | Tb response (hypothermia) ([1]; APEC i.p., Adora2a−/− mice): attenuated | Tb response (hypothermia) ([1]; APEC i.p., Adora2b−/− mice): fully intact | A2BAR (r) activity [11]: inactive (r) ^h | Ki ([8]; read-out: rat Ki, A1AR, ref Kim et al., 1994): 0.4 µM

Compound: CNC(=O)c1cnn(-c2nc(N)c3ncn([C@@H]4O[C@H](CO)[C@@H](O)[C@H]4O)c3n2)c1 [regadenoson, 1-[6-amino-9-[(2R,3R,4S,5R)-3,4-dihydroxy-5-(hydroxymethyl)oxolan-2-yl]purin-2-yl]-N-methylpyrazole-4-carboxamide]
Ki [3]: 0.0772 ± 0.0063 µM | Ki ([4]; ref Gao et al., 2001): > 100 µM | Ki [5]: 0.00775 ± 5e-05 µM | binding to A1AR more tightly than to A2AAR ([5]; mouse binding, Table 1): 10 fold | binding to mouse A1AR better than human A1AR ([5]; mouse vs human A1AR (human value Gao et al., 2001)): > 1000 fold | inhibition at 10 µM ([7]; read-out: % inhibition at 10 μM, mouse A3AR): 7 ± 2%

Compound: COCCOc1ccc(N2CCN(CCn3ncc4c3nc(N)n3nc(-c5ccco5)nc43)CC2)cc1 [preladenant]
Tb [1, 24]: increase in Tb | locomotor activity [1, 24]: increased locomotor activity

Compound: COc1ccc(CCCn2ncc3c2nc(N)n2nc(-c4ccco4)nc32)cc1 [SCH442416, 2-(2-furyl)-7-[3-(4-methoxyphenyl)propyl]-7H-pyrazolo[4,3-e][1,2,4]triazolo[1,5-c]pyrimidin-5-amine]
Ki [12]: 0.91 µM | block of PSB-0777-induced hypothermia ([1]; SCH442416 0.6 mg/kg): largely blocked | physical activity ([1]; SCH442416 0.6 mg/kg, i.p., by itself, p=0.078): trended to increase activity | Tb ([1]; SCH442416 0.6 mg/kg, i.p., by itself, p=0.10): trended to increase | Tb [1, 25]: increase in Tb | locomotor activity [1, 25]: increased locomotor activity | Ki [13]: 6.1 µM | Ki ([10]; read-out: mouse Ki, A1AR, mouse): 0.765 µM | Ki [14]: 6.8 µM | brain penetrant ([15]; ref Todde et al., 2000): yes ^j | Ki ([4]; ref Todde et al., 2000): > 10 µM | Ki ([8]; read-out: rat Ki, A1AR, ref Todde et al., 2000): 1.81 µM | Ki [16]: > 10 µM

Compound: Nc1ncnc2c1ncn2[C@@H]1O[C@H](CO)[C@@H](O)[C@H]1O [adenosine]
Tb response (hypothermia) ([1]; adenosine 100 mg/kg, i.p., Adora1−/−;Adora3−/− mice): robust hypothermia

Compound: CCNC(=O)[C@H]1O[C@@H](n2cnc3c(N)nc(NCCc4ccc(CCC(=O)O)cc4)nc32)[C@H](O)[C@@H]1O [CGS-21680, 2-[p-(2-carboxyethyl)phenethylamino]-5′-N-ethylcarboxamidoadenosine]
Tb response (hypothermia) ([1]; CGS-21680 0.01 mg/kg i.c.v., C57BL/6J mice): No hypothermia | Tb response (hypothermia) ([1]; CGS-21680 0.5 mg/kg, i.p., Adora1−/−;Adora3−/− mice): intact | Tb response (hypothermia) ([1]; CGS-21680 0.5 mg/kg, i.p., Adora2a−/− mice): did not cause hypothermia | Tb response (hypothermia) ([1]; CGS-21680 0.5 mg/kg, i.p., KitW−sh/W−sh mice (lack mast cells)): showed a hypothermic response | Tb response (hypothermia) [1, 26]: dose-dependent hypothermia | physical activity [1, 26]: hypoactivity | hypothermia ([17]; CGS-21680, high i.c.v. dose, ref Anderson et al., 1994): mild hypothermia | hypothermia ([17]; CGS-21680, peripheral dosing, ref Eisner et al., 2017): mild hypothermia | off-target activities detected [18]: none | brain penetrant ([15]; ref Nikodijevic et al., 1990): no ^d | food intake [19]: reduced food intake | metabolic rate (total energy expenditure) [19]: marked reduction in metabolic rate | time of Tb nadir [19]: ~ 65 minutes | time of energy expenditure nadir [19]: ~ 26 minutes | blood pressure [20]: caused hypotension

Source: PMC6067974 (Neuropharmacology, 2018)
